Experimental data published in patent publication US5028440A, “Method of raising meat producing animals to increase lean tissue development” (Iowa State University Research Foundation, Inc., priority 1990, dated 1991).
“Also recorded” adds a separate entry of the source.

Columns and labels:
[1] = tested on: male leghorn chicks; experiment: Feeding HMB to Poultry: growth, feed efficiency and breast muscle of chicks; type: in vivo; settings: 0.04% of the diet; for Feed/gain / Breast muscle / Gain: 5 week data; for Feed/gain: control 2.30; for Breast muscle: control 2.84; for Gain: control 222; for Breast muscle, change from control / Feed/gain, change from control: ** (HMB) significant at p < .02
Experimental: (§1) To compare KIC and HMB as growth promotants, young male leghorn chicks were allotted to 12 battery (wire mess floors) pens consisting of 10 birds each. Treatments of control, HMB (0.04% of the diet) and KIC (0.04% of the diet) were assigned to the pens. Feed consumption was measured during the 5 week experiment. During week 2 of the experiment chicks were injected with 50 ul of a 20% suspension of pig red blood cells intraperitoneally.
(§2) Chicks were fed a diet adequate in all nutrients for leghorns of this age. HMB was a supplement to this diet at 0.04% of the diet (w/w).
(§3) At the end of the 5 week experiment chicks were decapitated and serum collected for pig red blood cells antibody titer determination. Titers to red blood cells were evaluated by a microtiter agglutination test (Kuhlman, et al.). Also, the Pectoralis major muscle (the major breast muscle) was dissected and weighed as a measure of muscle growth.

[2] = tested on: lambs; experiment: Feeding of HMB to Lambs--Trial 2; type: in vivo
Description: Animals and Experimental Design. Twenty-two lambs were housed individually in fiberglass pens (1.15 m^2) and randomly assigned to control or HMB diets. The control had nothing added to the diet while the HMB animals had 1 g of CaHMB supplemented to their diets each day. At the beginning of the experiment animals were weighed and ultrasound measurement made of the longissimus area and the amount of fat over the longissimus muscle. These measurements were made over the 12th rib area. Feed consumption was monitored. At the end of the experiment animals were weighed, feed consumption measured and the longissimus area and fat thickness measured again with the ultrasound apparatus. The gain in longissimus area and backfat were calculated from the initial value.
Composition of Basal Diet Fed to All Sheep
(§4) Trace mineral & vitamin premix

[3] = Stability of KIC or HMB in the rumen (incubation in rumen fluid); type: in vitro ADME, steer; settings: for KIC or HMB in rumen fluid: 39° C.
Experimental: Rumen fluid was collected from a fistulated steer. After filtration and dilution (1:4) with an artificial saliva, 25ml of the solution was added to 50ml plastic tubes. Each tube was fitted with a one-way valve to allow gases to escape while not allowing air into the tube. Each tube was then gassed with CO2 and incubated at 39° C. After 30 min a solution of KIC or HMB was added to the tube in concentrations to simulate what would be present in the rumen of an animal consuming 0.05% of the diet as KIC or HMB. It was estimated that a 50 uM concentration would be attained in this case. At timed intervals 50 ul samples of this rumen fluid were taken and analyzed for KIC and HMB.

[4] = tested on: domestic animals; experiment: Growth metabolism of domestic animals, HMB compared with KIC (summary statement); settings: in vivo
[5] = tested on: pig red blood cells; experiment: Pig red blood cell antibody titer in chicks (microtiter agglutination test); type: in vivo, chicks (male leghorn); settings: 0.04% of the diet, 5 weeks; for Red blood cell titer, change from control: ** (HMB) significant at p < .02; for Red blood cell titer: pig red blood cells injected week 2, control 1.57
Experimental: as §1, §2, §3

[6] = tested on: lambs; experiment: Feeding of HMB to Lambs--Trial 1; type: in vivo
Description: Animals and Experimental Design. Three sets of twin lambs were housed individually in fiberglass pens. Animals were randomly assigned to control or HMB diets, using Ca-HMB as the feed additive at a level of 0.5% of the basal diet.
Composition of Basal Diet Fed to All Sheep.
as §4

[7] = tested on: domestic animals; settings: cited from earlier work
[8] = feeds for cattle and sheep; background statement; cited from earlier work
[9] = KIC fed as replacement for leucine; cited from earlier work
[10] = Hygroscopicity of HMB salts; type: physicochemical
[11] = 0 min after addition, rumen fluid diluted 1:4 with artificial saliva, initial KIC could only be estimated
[12] = 15 min after addition, rumen fluid diluted 1:4
[13] = 30 min after addition, rumen fluid diluted 1:4
[14] = 60 min after addition, rumen fluid diluted 1:4
[15] = 240 min after addition, rumen fluid diluted 1:4
[16] = 480 min after addition, rumen fluid diluted 1:4

Question: For `CC(C)(O)CC(=O)O` [HMB, β-hydroxy-β-methyl butyric acid], which Feed/gain [1] is on record?
Answer: 2.17

Question: And the Breast muscle [1]?
Answer: 3.00%

Question: And the Gain [1]?
Answer: 229 g

Question: And the “Gain, change from control” value ([1]; 5 weeks)?
Answer: 3.3%

Question: What about the “comparison with KIC in all parameters (in words)” value ([1]; 5 weeks) of the same compound?
Answer: superior in all parameters measured

Question: And the “performance of growing chicks (in words)” value ([1]; 5 weeks)?
Answer: increased performance of growing chicks by increasing the rate of growth and by making more efficient use of feed for growth

Question: And the “Breast muscle, change from control” value ([1]; 5 weeks)?
Answer: 5.5%

Question: What about the “Feed/gain, change from control” value ([1]; 5 weeks) of the same compound?
Answer: -5.8%

Question: And the Feed/gain ([2]; 1 g CaHMB per day, control 4.41)?
Answer: 4.28

Question: What about the Total gain ([2]; 1 g CaHMB per day, lambs from 60 lbs. to 100 lbs., control 38.5) of the same compound?
Answer: 40.5 lbs

Question: What about the Loin area gain ([2]; 1 g CaHMB per day, ultrasound, control 2.08) of the same compound?
Answer: 3.34 cm2

Question: And the Back fat gain ([2]; 1 g CaHMB per day, ultrasound, control .27)?
Answer: .19 cm

Question: And the “% Change, Feed/gain” value ([2]; vs control)?
Answer: -3%

Question: What about the “% Change, Total gain” value ([2]; vs control) of the same compound?
Answer: +6%

Question: What about the “performance and lean vs. fat gain (in words)” value ([2]; vs control) of the same compound?
Answer: increases preformance and increases lean vs. fat gain

Question: What about the “% Change, Back fat gain” value ([2]; vs control, **P < .02 level) of the same compound?
Answer: -30%

Question: What about the “% Change, Loin area gain” value ([2]; vs control, **P < .02 level) of the same compound?
Answer: 60%

Question: What about the “stability in rumen environment (in words)” value [3] of the same compound?
Answer: not being subject to appreciable rumen destruction; also recorded: not subject to significant rumen destruction; also recorded: quite stable in a rumen environment

Question: What about the “KIC or HMB in rumen fluid” value [3, 11] of the same compound?
Answer: 60 µM

Question: What about the “KIC or HMB in rumen fluid” value [3, 12] of the same compound?
Answer: 76 µM

Question: What about the “KIC or HMB in rumen fluid” value [3, 13] of the same compound?
Answer: 81 µM

Question: And the “KIC or HMB in rumen fluid” value [3, 14]?
Answer: 71 µM

Question: And the “KIC or HMB in rumen fluid” value [3, 15]?
Answer: 74 µM

Question: What about the “KIC or HMB in rumen fluid” value [3, 16] of the same compound?
Answer: 74 µM

Question: What about the “improving growth metabolism compared with KIC (in words)” value [4] of the same compound?
Answer: more effective for improving growth metabolism of domestic animals

Question: What about the “lean tissue development (in words)” value [4] of the same compound?
Answer: increase markedly the development of lean tissue

Question: And the “Red blood cell titer, change from control” value [5]?
Answer: 107%

Question: What about the “Red blood cell titer” value [5] of the same compound?
Answer: 3.25 dilution

Question: What about the Longissimus area ([6]; Ca-HMB 0.5% of the basal diet, control 2.1) of the same compound?
Answer: 2.3 sq. in.

Question: And the “Renal Fat %” value ([6]; Ca-HMB 0.5% of the basal diet, control 2.42)?
Answer: 1.90 % of animal live weight

Question: And the Feed/gain ([6]; Ca-HMB 0.5% of the basal diet, control 3.89)?
Answer: 3.60

Question: What about the “Back Fat (fat thickness over 12th rib)” value ([6]; Ca-HMB 0.5% of the basal diet, control .21) of the same compound?
Answer: .12 in

Question: And the Average daily gain ([6]; Ca-HMB 0.5% of the basal diet, control .287)?
Answer: .296 kg/day

Question: What about the “lean tissue and fat growth (in words)” value ([6]; limited study, vs controls) of the same compound?
Answer: appeared to stimulate growth of lean tissues at the expense of fat

Question: And the “% change due to HMB, Average daily gain” value ([6]; vs controls)?
Answer: +3%

Question: What about the “% change due to HMB, Feed/Gain” value ([6]; vs controls) of the same compound?
Answer: -7%

Question: And the “% change due to HMB, Longissimus area” value ([6]; vs controls)?
Answer: +10%

Question: What about the “% change due to HMB, Back Fat” value ([6]; vs controls, *P < 0.5) of the same compound?
Answer: -43%

Question: And the “% change due to HMB, Renal Fat” value ([6]; vs controls, *P < 0.5)?
Answer: -22%

Question: With `CC(C)CC(=O)C(=O)O` [KIC, α-keto-isocaproic acid, reference compound] as the compound, how does the Feed/gain [1] read?
Answer: 2.24

Question: And the Breast muscle [1]?
Answer: 2.94%

Question: What about the Gain [1] of the same compound?
Answer: 229 g

Question: What about the “Gain, change from control” value ([1]; 5 weeks) of the same compound?
Answer: 3.3%

Question: What about the “Breast muscle, change from control” value ([1]; 5 weeks) of the same compound?
Answer: 3.5%

Question: And the “Feed/gain, change from control” value ([1]; 5 weeks)?
Answer: -2.5%

Question: What about the “effects on the immune system (in words)” value ([7]; U.S. Pat. No. 4,835,185) of the same compound?
Answer: some apparently beneficial effects on the immune system

Question: And the “cholesterol in meat, milk and eggs (in words)” value ([7]; U.S. Pat. Nos. 4,760,090 and 4,760,531)?
Answer: cholesterol reduction in meat, milk and eggs

Question: What about the “consistency of beneficial effects (in words)” value ([7]; domestic animals, particularly ruminants) of the same compound?
Answer: not consistently obtainable

Question: What about the “milk production (in words)” value ([7]; lactating domestic animals, such as dairy cattle, U.S. Pat. No. 4,758,593) of the same compound?
Answer: the quantity of milk produced may be increased

Question: What about the “egg production (in words)” value ([7]; laying chickens, U.S. Pat. No. 4,760,531) of the same compound?
Answer: can also sometimes be increased

Question: What about the “wool production (in words)” value ([7]; mature sheep, U.S. Pat. No. 4,760,090) of the same compound?
Answer: the amount of wool produced may also be increased

Question: And the “rates of weight gain and/or feed efficiencies (in words)” value ([7]; milligram amounts of KIC, U.S. Pat. Nos. 4,760,090 and 4,883,817)?
Answer: some increases in the rates of weight gain and/or feed efficiencies have been obtained

Question: And the “muscle growth (in words)” value ([7]; previous research)?
Answer: generally has not been found to stimulate muscle growth

Question: What about the “fat deposition (in words)” value ([7]; sheep, previous research) of the same compound?
Answer: decrease fat deposition

Question: What about the “stability in rumen environment (in words)” value [3] of the same compound?
Answer: rapidly destroyed by the rumen bacteria

Question: And the “KIC or HMB in rumen fluid” value [3, 11]?
Answer: 30 µM

Question: And the “KIC or HMB in rumen fluid” value [3, 12]?
Answer: 15 µM

Question: And the “KIC or HMB in rumen fluid” value [3, 13]?
Answer: 4 µM

Question: And the “KIC or HMB in rumen fluid” value [3, 14]?
Answer: 2 µM

Question: And the “KIC or HMB in rumen fluid” value [3, 15]?
Answer: 2 µM

Question: What about the “KIC or HMB in rumen fluid” value [3, 16] of the same compound?
Answer: 1 µM

Question: What about the “accumulation of body fat (in words)” value [4] of the same compound?
Answer: slight tending for KIC to reduce the accumulation of body fat

Question: What about the “lean tissue development (in words)” value [4] of the same compound?
Answer: not obtainable with KIC

Question: What about the “Red blood cell titer, change from control” value [5] of the same compound?
Answer: 68%

Question: And the “Red blood cell titer” value [5]?
Answer: 2.65 dilution

Question: And the “rumen destruction (in words)” value [8]?
Answer: subject to partial rumen destruction

Question: And the “amount of KIC required relative to nutritionally required amount of leucine” value [9]?
Answer: two to three

Question: For `CC(C)(O)CC(=O)O` [Na-HMB], which “hygroscopicity (in words)” value [10] is on record?
Answer: more hydroscopic than Ca-HMB
